These results are taken from ChEMBL document CHEMBL3046035, “Synthesis and biological evaluation of novel 4,5-dihydropyrazole derivatives as potent anticancer and antimicrobial agents” (Med Chem Res, 2013).

In general, MIC refers to the lowest concentration found to suppress growth. As usually defined, the pIC50 is the IC50 on a negative log10 scale, so that one unit is a factor of ten.

The structures appear in SMILES notation. pIC50: −log10 of the molar value. ≈ marks a conversion by molar mass, not a printed value.

Assay [1] deals with Escherichia coli. As to the kind of experiment: Antimicrobial activity against Escherichia coli ATCC 10536 assessed as growth inhibition after 24 hr by broth microdilution method. To be noted: ATCC 10536, 24 h. The assay is classed as functional. Background: In broth dilution the organism is exposed to a series of concentrations in liquid medium.
The subject of assay [2] is HeLa. Nature of the assay: Anticancer activity against Homo sapiens (human) HeLa cells assessed as inhibition of cell viability after 96 hr by MTT assay. The assay is classed as functional, cell-based. Background: Tetrazolium assays rely on reduction of a dye to a coloured formazan, in cell work by metabolically active cells.
The subject of assay [3] is A549. Nature of the assay: Anticancer activity against Homo sapiens (human) A549 cells assessed as inhibition of cell viability after 96 hr by MTT assay. The assay is classed as functional, cell-based. To be noted: A549, 96 h.
In assay [4] the test system is Aspergillus niger. Nature of the assay: Antimicrobial activity against Aspergillus niger ATCC 6275 assessed as growth inhibition after 24 hr by broth microdilution method. The assay is classed as functional. To be noted: ATCC 6275, 24 h.
For assay [5], the system named is Candida tropicalis. As to the kind of experiment: Antimicrobial activity against Candida tropicalis ATCC 1369 assessed as growth inhibition after 24 hr by broth microdilution method. The assay is classed as functional. To be noted: ATCC 1369, 24 h.
Assay [6] deals with Bacillus subtilis. Nature of the assay: Antimicrobial activity against Bacillus subtilis ATCC 60511 assessed as growth inhibition after 24 hr by broth microdilution method. It counts as functional. To be noted: ATCC 60511, 24 h.
Assay [7] relates to Pseudomonas aeruginosa. As to the kind of experiment: Antimicrobial activity against Pseudomonas aeruginosa ATCC 10145 assessed as growth inhibition after 24 hr by broth microdilution method. The assay is classed as functional. Particulars: ATCC 10145, 24 h.
The test system of assay [8] is BGC-823. As to the kind of experiment: Anticancer activity against Homo sapiens (human) BGC823 cells assessed as inhibition of cell viability after 96 hr by MTT assay. It counts as functional, cell-based. To be noted: BGC-823, 96 h.
The subject of assay [9] is A2780. As to the kind of experiment: Anticancer activity against Homo sapiens (human) A2780 cells assessed as inhibition of cell viability after 96 hr by MTT assay. The assay is classed as functional, cell-based. To be noted: A2780, 96 h.
The test system of assay [10] is Klebsiella pneumoniae. As to the kind of experiment: Antimicrobial activity against Klebsiella pneumoniae ATCC 10031 assessed as growth inhibition after 24 hr by broth microdilution method. The assay is classed as functional. Particulars: ATCC 10031, 24 h.
Assay [11] has as its system Saccharomyces cerevisiae. Nature of the assay: Antimicrobial activity against Saccharomyces cerevisiae ATCC 9763 assessed as growth inhibition after 24 hr by broth microdilution method. The assay is classed as functional. Particulars: ATCC 9763, 24 h.
Assay [12] deals with Enterococcus faecalis. Nature of the assay: Antimicrobial activity against Enterococcus faecalis ATCC 14506 assessed as growth inhibition after 24 hr by broth microdilution method. It counts as functional. To be noted: ATCC 14506, 24 h.
In assay [13] the test system is MCF7. Nature of the assay: Anticancer activity against Homo sapiens (human) MCF7 cells assessed as inhibition of cell viability after 96 hr by MTT assay. The assay is classed as functional, cell-based. Particulars: MCF7, 96 h.
The subject of assay [14] is Staphylococcus aureus. Nature of the assay: Antimicrobial activity against Staphylococcus aureus ATCC 11632 assessed as growth inhibition after 24 hr by broth microdilution method. The assay is classed as functional. To be noted: ATCC 11632, 24 h.

`CCOC(=O)Cc1csc(N2N=C(c3ccccc3)CC2c2c(F)cccc2F)n1` (stereo not drawn): the MIC in [1] was 8 µg/mL (≈ 18.7 µM); in assay [4] it was 62.5 µg/mL (≈ 146 µM); in assay [5], 31.2 µg/mL (≈ 73.1 µM); in [6], 31.2 µg/mL (≈ 73.1 µM); in assay [7], 8 µg/mL (≈ 18.7 µM); in assay [10] it was 8 µg/mL (≈ 18.7 µM). Moreover, the MIC in assay [11] came to 62.5 µg/mL (≈ 146 µM); in assay [12] it was 31.2 µg/mL (≈ 73.1 µM); in [14] it was 16 µg/mL (≈ 37.4 µM). Further, the pIC50 is 5.20 in [2]; 5.38 in [3]; 5.41 in assay [8]; 5.41 in assay [9]; 5.68 in assay [13].

On to `NC(=S)N1N=C(c2ccccc2)CC1c1c(F)cccc1F` (stereo not drawn), for which the MIC in assay [1] was 62.5 µg/mL (≈ 197 µM); in assay [4] it was 62.5 µg/mL (≈ 197 µM); in [5] it was 31.2 µg/mL (≈ 98.5 µM); in [6] it was 8 µg/mL (≈ 25.2 µM); in assay [7], 31.2 µg/mL (≈ 98.5 µM); in [10], 62.5 µg/mL (≈ 197 µM). Also, the MIC was 125 µg/mL (≈ 394 µM) in assay [11], 31.2 µg/mL (≈ 98.5 µM) in [12] and 31.2 µg/mL (≈ 98.5 µM) in assay [14]. The pIC50 in [2] is 5.20; in assay [3], 5.59; in assay [8], 5.74; in assay [9], 5.44; in [13], 5.67.

As for `Oc1ccc(C2N=C(N3N=C(c4ccccc4)CC3c3c(F)cccc3F)S2)cc1` (stereo not drawn), the MIC stood at 4 µg/mL (≈ 9.49 µM) in assay [1]; 31.2 µg/mL (≈ 74.1 µM) in assay [4]; 16 µg/mL (≈ 38 µM) in assay [5]; 31.2 µg/mL (≈ 74.1 µM) in assay [6]; 4 µg/mL (≈ 9.49 µM) in assay [7]; 16 µg/mL (≈ 38 µM) in assay [10]. For the same compound, the figures for the MIC in [11], in [12] and in assay [14] were 16 µg/mL (≈ 38 µM), 31.2 µg/mL (≈ 74.1 µM) and 16 µg/mL (≈ 38 µM), respectively. The pIC50 in assay [2] was 5.21; in assay [3], 5.46; in assay [8], 5.98; in [9], 5.50; in [13], 5.36.

With `Cc1ccc(C2N=C(N3N=C(c4ccccc4)CC3c3c(F)cccc3F)S2)cc1` (stereo not drawn), the MIC was found to be 8 µg/mL (≈ 19.1 µM) in assay [1]; 62.5 µg/mL (≈ 149 µM) in assay [4]; 125 µg/mL (≈ 298 µM) in assay [5]; 16 µg/mL (≈ 38.1 µM) in assay [6]; 4 µg/mL (≈ 9.54 µM) in [7]; 4 µg/mL (≈ 9.54 µM) in assay [10]. In addition, the MIC in assay [11] was 62.5 µg/mL (≈ 149 µM); in assay [12], 8 µg/mL (≈ 19.1 µM); in assay [14], 16 µg/mL (≈ 38.1 µM). Further, the pIC50 in assay [2] was 5.18; in [3] it was 5.38; in assay [8] it was 5.49; in assay [9], 5.29; in [13], 5.49.

For the compound `O=[N+]([O-])c1ccc(C2N=C(N3N=C(c4ccccc4)CC3c3c(F)cccc3F)S2)cc1` (stereo not drawn), the minimum inhibitory concentration (MIC) in assay [1] was 31.2 µg/mL (≈ 69.4 µM); in assay [4] it was 125 µg/mL (≈ 277 µM); in assay [5] it was 125 µg/mL (≈ 277 µM); in assay [6] it was 62.5 µg/mL (≈ 139 µM); in [7], 8 µg/mL (≈ 17.8 µM); in assay [10], 31.2 µg/mL (≈ 69.4 µM). Moreover, the values for the MIC in assay [11], in assay [12] and in assay [14] were 8 µg/mL (≈ 17.8 µM), 16 µg/mL (≈ 35.5 µM) and 31.2 µg/mL (≈ 69.4 µM), respectively. For the same compound, the pIC50 in [2] was 5.18; in assay [3], 5.49; in assay [8], 5.21; in assay [9] it was 5.36; in assay [13], 5.49.

Consider `Cc1ccc(-c2csc(N3N=C(c4ccccc4)CC3c3c(F)cccc3F)n2)cc1` (stereo not drawn), for which the MIC in assay [1] came to 8 µg/mL (≈ 18.5 µM); in assay [4], 62.5 µg/mL (≈ 145 µM); in assay [5] it was 125 µg/mL (≈ 290 µM); in assay [6], 4 µg/mL (≈ 9.27 µM); in assay [7], 8 µg/mL (≈ 18.5 µM); in assay [10], 4 µg/mL (≈ 9.27 µM). Besides, the MIC worked out at 62.5 µg/mL (≈ 145 µM) in assay [11], 8 µg/mL (≈ 18.5 µM) in [12] and 4 µg/mL (≈ 9.27 µM) in [14]. In addition, the pIC50 was 5.31 in assay [2]; 5.92 in [3]; 5.92 in assay [8]; 5.52 in assay [9]; 5.60 in [13].

With `Fc1cccc(F)c1C1CC(c2ccccc2)=NN1C1=NC(c2ccc(Cl)cc2)S1` (stereo not drawn), the MIC in [1] stood at 8 µg/mL (≈ 18.2 µM); in assay [4] it was 8 µg/mL (≈ 18.2 µM); in [5], 8 µg/mL (≈ 18.2 µM); in assay [6], 31.2 µg/mL (≈ 71 µM); in assay [7], 62.5 µg/mL (≈ 142 µM); in assay [10] it was 16 µg/mL (≈ 36.4 µM). For the same compound, the MIC in [11] was determined as 4 µg/mL (≈ 9.09 µM); in assay [12] it was 125 µg/mL (≈ 284 µM); in assay [14], 31.2 µg/mL (≈ 71 µM). Besides, the pIC50 is 5.31 in assay [2]; 5.81 in assay [3]; 5.85 in assay [8]; 5.57 in assay [9]; 5.77 in [13].
